According to PubChem BioAssay (NCI):
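Five compound concentrations were applied to cells in 96-well plates for 48 hours; endpoints were derived by simple linear interpolation of the resulting dose-response curve. The concentration for 50% growth inhibition is given as GI50. The concentration for full growth arrest is given as TGI.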

Assays:
Assay in all cases: inhibition of tumour cell growth, NCI panel, 48 h
786-0 renal = system: 786-0 renal
A498 renal = system: A498 renal
A549 NSCLC = system: A549 NSCLC
ACHN renal = system: ACHN renal
BT-549 breast = system: BT-549 breast
CAKI-1 renal = system: CAKI-1 renal
CCRF-CEM leukemia = system: CCRF-CEM leukemia
COLO 205 colon = system: COLO 205 colon
DU-145 prostate = system: DU-145 prostate
EKVX NSCLC = system: EKVX NSCLC
HCC-2998 colon = system: HCC-2998 colon
HCT-116 colon = system: HCT-116 colon
HCT-15 colon = system: HCT-15 colon
HL-60(TB) leukemia = system: HL-60(TB) leukemia
HOP-62 NSCLC = system: HOP-62 NSCLC
HOP-92 NSCLC = system: HOP-92 NSCLC
HS 578T breast = system: HS 578T breast
HT29 colon = system: HT29 colon
IGROV1 ovarian = system: IGROV1 ovarian
KM12 colon = system: KM12 colon
LOX IMVI melanoma = system: LOX IMVI melanoma
M14 melanoma = system: M14 melanoma
MALME-3M melanoma = system: MALME-3M melanoma
MCF7 breast = system: MCF7 breast
MDA-MB-231 breast = system: MDA-MB-231 breast
MDA-MB-435 = system: MDA-MB-435
MOLT-4 leukemia = system: MOLT-4 leukemia
NCI-H226 lung = system: NCI-H226 lung
NCI-H23 lung = system: NCI-H23 lung
NCI-H460 lung = system: NCI-H460 lung
NCI-H522 lung = system: NCI-H522 lung
NCI/ADR-RES ovarian = system: NCI/ADR-RES ovarian
OVCAR-3 ovarian = system: OVCAR-3 ovarian
OVCAR-4 ovarian = system: OVCAR-4 ovarian
OVCAR-5 ovarian = system: OVCAR-5 ovarian
OVCAR-8 ovarian = system: OVCAR-8 ovarian
PC-3 prostate = system: PC-3 prostate
RPMI-8226 leukemia = system: RPMI-8226 leukemia
RXF 393 renal = system: RXF 393 renal
SF-268 CNS = system: SF-268 CNS
SF-295 CNS = system: SF-295 CNS
SF-539 CNS = system: SF-539 CNS
SK-MEL-2 melanoma = system: SK-MEL-2 melanoma
SK-MEL-28 melanoma = system: SK-MEL-28 melanoma
SK-MEL-5 melanoma = system: SK-MEL-5 melanoma
SK-OV-3 ovarian = system: SK-OV-3 ovarian
SN12C renal = system: SN12C renal
SNB-19 CNS = system: SNB-19 CNS
SNB-75 CNS = system: SNB-75 CNS
SW-620 colon = system: SW-620 colon
T-47D breast = system: T-47D breast
TK-10 renal = system: TK-10 renal
U251 CNS = system: U251 CNS
UACC-257 melanoma = system: UACC-257 melanoma
UACC-62 melanoma = system: UACC-62 melanoma
UO-31 renal = system: UO-31 renal

Question: Cc1ncc(C(=O)Nc2ccc(CN3CCN(C)CC3)c(C(F)(F)F)c2)cc1C#Cc1c(N)ncc2ccc(F)cc12 was tested. Which GI50 (786-0 renal) did it give?
Answer: 756 nM

Question: And the TGI (786-0 renal)?
Answer: 1560 nM

Question: And the GI50 (A498 renal)?
Answer: 930 nM

Question: And the TGI (A498 renal)?
Answer: 1740 nM

Question: And the GI50 (A549 NSCLC)?
Answer: 631 nM

Question: What about the TGI (A549 NSCLC) of the same compound?
Answer: 1440 nM

Question: And the GI50 (ACHN renal)?
Answer: 374 nM

Question: What about the TGI (ACHN renal) of the same compound?
Answer: 3230 nM

Question: What about the GI50 (BT-549 breast) of the same compound?
Answer: 1490 nM

Question: And the TGI (BT-549 breast)?
Answer: 4120 nM

Question: And the GI50 (CAKI-1 renal)?
Answer: 1050 nM

Question: And the TGI (CAKI-1 renal)?
Answer: 6160 nM

Question: And the GI50 (CCRF-CEM leukemia)?
Answer: 809 nM

Question: What about the TGI (CCRF-CEM leukemia) of the same compound?
Answer: 2140 nM

Question: What about the GI50 (COLO 205 colon) of the same compound?
Answer: 197 nM

Question: What about the TGI (COLO 205 colon) of the same compound?
Answer: 1230 nM

Question: And the GI50 (DU-145 prostate)?
Answer: 692 nM

Question: What about the TGI (DU-145 prostate) of the same compound?
Answer: 1390 nM

Question: And the GI50 (EKVX NSCLC)?
Answer: 1540 nM

Question: What about the TGI (EKVX NSCLC) of the same compound?
Answer: 9370 nM

Question: What about the GI50 (HCC-2998 colon) of the same compound?
Answer: 1010 nM

Question: What about the TGI (HCC-2998 colon) of the same compound?
Answer: 7810 nM

Question: And the GI50 (HCT-116 colon)?
Answer: 176 nM

Question: And the TGI (HCT-116 colon)?
Answer: 873 nM

Question: What about the GI50 (HCT-15 colon) of the same compound?
Answer: 559 nM

Question: What about the TGI (HCT-15 colon) of the same compound?
Answer: 3150 nM

Question: And the GI50 (HL-60(TB) leukemia)?
Answer: 319 nM

Question: And the TGI (HL-60(TB) leukemia)?
Answer: 2060 nM

Question: And the GI50 (HOP-62 NSCLC)?
Answer: 1180 nM

Question: And the TGI (HOP-62 NSCLC)?
Answer: 8180 nM

Question: And the GI50 (HOP-92 NSCLC)?
Answer: 48.9 nM

Question: And the TGI (HOP-92 NSCLC)?
Answer: 468 nM

Question: What about the GI50 (HS 578T breast) of the same compound?
Answer: 588 nM

Question: And the TGI (HS 578T breast)?
Answer: 2740 nM

Question: And the GI50 (HT29 colon)?
Answer: 68.9 nM

Question: What about the TGI (HT29 colon) of the same compound?
Answer: 651 nM

Question: And the GI50 (IGROV1 ovarian)?
Answer: 301 nM

Question: And the TGI (IGROV1 ovarian)?
Answer: 6270 nM

Question: And the GI50 (KM12 colon)?
Answer: 5 nM

Question: What about the TGI (KM12 colon) of the same compound?
Answer: 646 nM

Question: What about the GI50 (LOX IMVI melanoma) of the same compound?
Answer: 184 nM

Question: What about the TGI (LOX IMVI melanoma) of the same compound?
Answer: 841 nM

Question: What about the GI50 (M14 melanoma) of the same compound?
Answer: 128 nM

Question: What about the TGI (M14 melanoma) of the same compound?
Answer: 690 nM

Question: And the GI50 (MALME-3M melanoma)?
Answer: 105 nM

Question: What about the TGI (MALME-3M melanoma) of the same compound?
Answer: 601 nM

Question: What about the GI50 (MCF7 breast) of the same compound?
Answer: 503 nM

Question: What about the TGI (MCF7 breast) of the same compound?
Answer: 1330 nM

Question: And the GI50 (MDA-MB-231 breast)?
Answer: 129 nM

Question: What about the TGI (MDA-MB-231 breast) of the same compound?
Answer: 743 nM

Question: And the GI50 (MDA-MB-435)?
Answer: 170 nM

Question: What about the TGI (MDA-MB-435) of the same compound?
Answer: 1040 nM

Question: What about the GI50 (MOLT-4 leukemia) of the same compound?
Answer: 579 nM

Question: And the TGI (MOLT-4 leukemia)?
Answer: 1740 nM

Question: What about the GI50 (NCI-H226 lung) of the same compound?
Answer: 624 nM

Question: What about the TGI (NCI-H226 lung) of the same compound?
Answer: 3650 nM

Question: And the GI50 (NCI-H23 lung)?
Answer: 596 nM

Question: What about the TGI (NCI-H23 lung) of the same compound?
Answer: 1370 nM

Question: And the GI50 (NCI-H460 lung)?
Answer: 643 nM

Question: And the TGI (NCI-H460 lung)?
Answer: 1470 nM

Question: What about the GI50 (NCI-H522 lung) of the same compound?
Answer: 668 nM

Question: And the TGI (NCI-H522 lung)?
Answer: 1830 nM

Question: What about the GI50 (NCI/ADR-RES ovarian) of the same compound?
Answer: 1260 nM

Question: What about the TGI (NCI/ADR-RES ovarian) of the same compound?
Answer: 4250 nM

Question: What about the GI50 (OVCAR-3 ovarian) of the same compound?
Answer: 789 nM

Question: What about the TGI (OVCAR-3 ovarian) of the same compound?
Answer: 1540 nM

Question: And the GI50 (OVCAR-4 ovarian)?
Answer: 2600 nM

Question: And the TGI (OVCAR-4 ovarian)?
Answer: 10800 nM

Question: And the GI50 (OVCAR-5 ovarian)?
Answer: 669 nM

Question: And the TGI (OVCAR-5 ovarian)?
Answer: 3030 nM

Question: What about the GI50 (OVCAR-8 ovarian) of the same compound?
Answer: 931 nM

Question: What about the TGI (OVCAR-8 ovarian) of the same compound?
Answer: 2410 nM

Question: What about the GI50 (PC-3 prostate) of the same compound?
Answer: 870 nM

Question: And the TGI (PC-3 prostate)?
Answer: 3140 nM

Question: And the GI50 (RPMI-8226 leukemia)?
Answer: 673 nM

Question: What about the TGI (RPMI-8226 leukemia) of the same compound?
Answer: 2170 nM

Question: And the GI50 (RXF 393 renal)?
Answer: 608 nM

Question: And the TGI (RXF 393 renal)?
Answer: 1290 nM

Question: And the GI50 (SF-268 CNS)?
Answer: 717 nM

Question: And the TGI (SF-268 CNS)?
Answer: 2500 nM

Question: What about the GI50 (SF-295 CNS) of the same compound?
Answer: 3450 nM

Question: What about the TGI (SF-295 CNS) of the same compound?
Answer: 11300 nM

Question: And the GI50 (SF-539 CNS)?
Answer: 624 nM

Question: And the TGI (SF-539 CNS)?
Answer: 1300 nM

Question: What about the GI50 (SK-MEL-2 melanoma) of the same compound?
Answer: 1050 nM

Question: What about the TGI (SK-MEL-2 melanoma) of the same compound?
Answer: 5770 nM

Question: What about the GI50 (SK-MEL-28 melanoma) of the same compound?
Answer: 415 nM

Question: And the TGI (SK-MEL-28 melanoma)?
Answer: 1230 nM

Question: And the GI50 (SK-MEL-5 melanoma)?
Answer: 678 nM

Question: What about the TGI (SK-MEL-5 melanoma) of the same compound?
Answer: 1530 nM

Question: What about the GI50 (SK-OV-3 ovarian) of the same compound?
Answer: 4790 nM

Question: And the TGI (SK-OV-3 ovarian)?
Answer: 12000 nM

Question: And the GI50 (SN12C renal)?
Answer: 422 nM

Question: And the TGI (SN12C renal)?
Answer: 3050 nM

Question: And the GI50 (SNB-19 CNS)?
Answer: 787 nM

Question: And the TGI (SNB-19 CNS)?
Answer: 1490 nM

Question: What about the GI50 (SNB-75 CNS) of the same compound?
Answer: 774 nM

Question: What about the TGI (SNB-75 CNS) of the same compound?
Answer: 2270 nM

Question: What about the GI50 (SW-620 colon) of the same compound?
Answer: 274 nM

Question: And the TGI (SW-620 colon)?
Answer: 1070 nM

Question: And the GI50 (T-47D breast)?
Answer: 4100 nM

Question: And the TGI (T-47D breast)?
Answer: 16300 nM

Question: And the GI50 (TK-10 renal)?
Answer: 715 nM

Question: What about the TGI (TK-10 renal) of the same compound?
Answer: 1520 nM

Question: What about the GI50 (U251 CNS) of the same compound?
Answer: 826 nM

Question: What about the TGI (U251 CNS) of the same compound?
Answer: 1580 nM

Question: What about the GI50 (UACC-257 melanoma) of the same compound?
Answer: 649 nM

Question: And the TGI (UACC-257 melanoma)?
Answer: 3220 nM

Question: And the GI50 (UACC-62 melanoma)?
Answer: 282 nM

Question: And the TGI (UACC-62 melanoma)?
Answer: 2840 nM

Question: And the GI50 (UO-31 renal)?
Answer: 602 nM

Question: What about the TGI (UO-31 renal) of the same compound?
Answer: 2800 nM
